Results on 2 compounds are retold here after patent publication US20180320177A1, “COMPOSITIONS AND METHODS FOR THE TREATMENT OF LIVER FIBROSIS” (UNIVERSITY OF CONNECTICUT, priority 2015, published 2018).

In one data set the test system is Smad signaling. Description: Smad signaling in LX2 cells (Western blot). Type of data set: cell-based, human. To be noted: LX2 cells (FIG. 5C). The method, then: (§1) Western Blotting: Total protein lysates were prepared from livers and cells in lysis buffer containing 50 mM Tris, pH 8.0, 1% Nonidet™ P-40, 150 mM NaCl, 0.5% sodium deoxycholate, 0.1% SDS with protease inhibitors (Thermo Fisher Scientific) and subjected to immunoblotting. Nuclear and cytoplasmic subcellular fractions were prepared using NE-PER nuclear and cytoplasmic extraction reagents (Pierce) according to the manufacturer's instructions. The blot was incubated with a primary antibody, followed by a secondary antibody conjugated to horseradish peroxidase. ECL kit (Pierce) was used to detect the reactivity. The following antibodies were obtained from Cell Signaling Technology: HMGB2, HMGB1, AKT, p-AKT, mTOR, p-mTOR, ERK1/2, pERK1/2, Raptor, Rictor, p53, p21, p-Bad, Smad4, p-Smad2/3, Lamin A/C, a-SMA, MMP2, MMP9, TIMP1, RhoA, Rho-GTP, Cdc42, Rac1/2/3. Anti-HA antibody and anti-beta actin antibody were purchased from Sigma and Santa Cruz Biotechnology, respectively.
Cell Lines The LX-2 human stellate cell line was maintained in Dulbecco's Modified Eagle's Medium (DMEM) supplemented with 2% fetal bovine serum (FBS), 100 IU/ml penicillin, and 100 μg/ml streptomycin. Human hepatocellular carcinoma (HCC) MHCC97H cells were maintained in DMEM supplemented with 10% FBS, 100 IU/ml penicillin, and 100 μg/ml streptomycin, 1 mM HEPES, 1 mM sodium pyruvate, 2 mM L-glutamine. […]
(In general: A western blot detects proteins with antibodies after separation by electrophoresis.)

Another data set concerns HMGB1 and HMGB2. The settings on record: neuroinflammation model; cited from earlier work.
Data set [1] concerns pAKT and pERK1/2 activation. Nature of the data set: pAKT and pERK1/2 activation and HMGB2 protein in primary stellate cells. Type of data set: cell-based, mouse. To be noted: stellate cells (FIG. 6E). The procedure:
as §1
Primary Mouse Hepatic Stellate Cells (HSCs) isolation and in vitro activation: Primary mouse HSCs were isolated from 8 to 12 weeks old wild type or Hmgb2^−/− mice, as described in the art with modifications. Briefly, mice were anesthetized with ketamine/xylazine mixture. The liver was perfused with Hank's balanced salt solution (HBSS) supplemented with 0.5 mM EGTA through the cannulated portal vein, followed by perfusion with HBSS supplemented with 0.5 mg/ml pronase (Sigma) and HBSS with 0.14 mg/ml collagenase (Sigma). The liver was dissected out from the mouse and dissociated cells were dispersed gently in HBSS. Primary HSC was isolated by three-layer discontinuous density gradient centrifugation with 25% and 50% percoll (Sigma) and plated on non-coated culture dishes in DMEM supplemented with 10% FBS, 100 IU/ml penicillin, and 100 μg/ml streptomycin. For culture-activated HSC studies, the medium of primary HSCs was replaced every day up to 7 days. For PDGF treatment, primary HSC cells were serum starved for 24 hr and then treated with PDFG for 3 or 5 days. […]

The test system of another data set is TIC cells. Description: TIC cell spheroid assay. In kind it is cell-based. The settings on record: TIC cells with stable HMGB2 knockdown (FIG. 7F). The method, then:
TIC cells were trypsinized into single cells and 1000 cells were suspended in serum free TIC medium with 1% methylcellulose supplemented with B27, 20 ng/ml EGF and 20 ng/ml FGF in each well of 96-well ultralow attachment plate.

For the compound `CC1(C)Oc2cc(O)ccc2C2C1=CCn1c(=O)n(-c3ccccc3)c(=O)n12` (stereo not drawn) [ICM, inflachromene], the Smad signaling result with Smad signaling was “decreases Smad signaling”. For the same compound, the “inhibitor profile HMGB1 / HMGB2” value in the data set with HMGB1 and HMGB2 is “dual inhibitor of both HMGB1 and HMGB2”. Besides, in data set [1], the HMGB2 protein result is recorded as “reduces”, the pAKR activation result is listed as “reduces” and the pERk1/2 activation entry was “reduces”.

Consider “shHMGB2: small hairpin RNA against HMGB2 (SEQ ID NO: 8), delivered by AAV or lentivirus (CCGGGCTCAACATTAGCTTCAGTATCTCGAGATACTGAAGCTAATGTTGAGCTTTTTG)”, for which, in the data set with TIC cells, the spheroid size entry is on record as “decreased spheroid size”.
